Test results as given in patent US4595694A, “Azulene derivatives, processes of their synthesis and their uses as anti-ulcerative and anti-inflammatory agents” (Kotobuki Seiyaku Co. Ltd., priority 1983, dated 1986).
Counter-ions that a name gives are not always drawn.

Assays:
Shay's rat = assay: Anti-ulcerative activity, pylorus ligation (Shay's rat); format: in vivo; details: perorally, 16 hours after ligation; for inhibition in vivo at 100 mg/kg / inhibition in vivo at 500 mg/kg: Rattus norvegicus, po, 16 h, read-out: % inhibition (ulcer index)
Experimental: In order to ascertain the anti-ulcerative activity […], Shay's rat (Gastro enterology 26, P. 906) is selected. Rats are fasted for 48 hours and pylorus ligation is carried out under light anesthesia. Drug is given perorally. 16 hours after ligation the animals are sacrificed and the stomach is removed. The induced erosion is measured in area and scored as ulcer index (U.I.). The data are expressed as % inhibition to the control value from the equation described below.

pepsin = biological target: T1, pepsin (Sus scrofa, UniProt P00791); assay: Anti-peptic activity in vitro (bovine serum albumin as substrate); format: biochemical; details: for IC50: obtained graphically, read-out: ID50 (50% inhibiting dose) (converted); for inhibition at 125 µg/mL: sample concentration 0.125 mg/ml; for inhibition at 250 µg/mL: sample concentration 0.250 mg/ml; for inhibition at 500 µg/mL: sample concentration 0.500 mg/ml; for inhibition at 1000 µg/mL: sample concentration 1.000 mg/ml
T1 construct: purchased
T1 sequence (P00791 60-385): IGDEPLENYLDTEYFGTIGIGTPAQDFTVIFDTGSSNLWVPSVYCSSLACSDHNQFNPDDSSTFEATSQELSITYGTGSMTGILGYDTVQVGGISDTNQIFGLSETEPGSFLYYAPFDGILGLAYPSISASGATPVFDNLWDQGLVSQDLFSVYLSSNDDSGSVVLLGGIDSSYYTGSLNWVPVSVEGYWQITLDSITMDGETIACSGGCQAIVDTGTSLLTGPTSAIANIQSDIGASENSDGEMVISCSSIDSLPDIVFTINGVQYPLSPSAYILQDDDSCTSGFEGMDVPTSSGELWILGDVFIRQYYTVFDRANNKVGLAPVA
Experimental: Anti-peptic activity of the compounds is tested in vitro according to V. K. Thiemer (Arznei-Forsch 22 (6), PP. 1086, 1972), using bovine serum albumin as a substrate and commercially available pepsin.
Also ID50 (50% inhibiting dose) is obtained graphically.

[1] = Stability on storage (% residue of the original compound); format: physicochemical; details: for remaining at 96 h: 40° C.; for remaining at 192 h: 60° C.; for remaining at 240 h: 70° C.; for remaining at 288 h: 80° C.
Source text: The data are expressed in % residue of the original compounds after the storage in each condition.

[2] = Acute toxicity (Litchfield & Wilcoxon method); details: rat, in vivo
Experimental: The acute toxicity of Compound 3 is determined by Litchfield & Wilcoxon method using SD rats.

`CC(C)=CCC[C@H](C)c1cc(S(=O)(=O)O)c2cc(C(C)C)cccc1-2` [compound 22, Sodium 7-isopropyl-3-(1'-S-1',5'-dimethyl-4'-hexene)-azulene sulfonate] gave an inhibition in vivo at 100 mg/kg (Shay's rat; 100 mg/kg) of -19.5%.

Work on `Cc1cc(S(=O)(=O)O)c2cc(C(C)C)cccc1-2` [compound 37, 7-isopropyl-3-methyl-azulene sulfonic acid aluminum salt] yielded an inhibition in vivo at 100 mg/kg (Shay's rat; 100 mg/kg) of 58.4%.

`CCc1cc(S(=O)(=O)O)c2cc(C(C)C)cccc1-2` [compound 38, 7-isopropyl-3-ethyl-azulene sulfonic acid aluminum salt] gave an inhibition in vivo at 100 mg/kg (Shay's rat; 100 mg/kg) of 40.3%.

`CC(C)=CCCC(C)c1cc(S(=O)(=O)O)c2cc(C(C)C)cccc1-2` (centres unmarked) [compound 20, Sodium 7-isopropyl-3-(1'-R, S-1',5'-dimethyl-4'-hexene)-azulene sulfonate] gave an inhibition in vivo at 100 mg/kg (Shay's rat; 100 mg/kg) of 43.8%.

With `CC(C)c1cccc2c(Cc3ccccc3)cc(S(=O)(=O)O)c-2c1` [compound 23, Sodium 7-isopropyl-3-benzyl-azulene sulfonate] the inhibition in vivo at 100 mg/kg (Shay's rat; 100 mg/kg) was 9.8%.

`CCc1cc(S(=O)(=O)O)c2cccccc1-2` [compound 36, 3-ethyl-azulene sulfonic acid aluminum salt] gave an inhibition in vivo at 100 mg/kg (Shay's rat; 100 mg/kg) of 28.6%.

`CCc1cc(S(=O)(=O)O)c2cccccc1-2` [compound 2, Sodium 3-ethyl-azulene sulfonate] gave an inhibition in vivo at 500 mg/kg (Shay's rat) of 100%.

Compound `CCCCCc1cc(S(=O)(=O)O)c2cccccc1-2` [compound 15, Sodium 3-n-pentyl-azulene sulfonate] has an inhibition in vivo at 100 mg/kg (Shay's rat; 100 mg/kg) of 64.3%.

Work on `CCCc1cc(S(=O)(=O)O)c2cccccc1-2` [compound 12, Sodium 3-propyl-azulene sulfonate] yielded an inhibition in vivo at 100 mg/kg (Shay's rat; 100 mg/kg) of 78.5%.

In the case of `CCCCCc1cc(S(=O)(=O)O)c2ccccc(OC)c1-2` [compound 28, Sodium 4-methoxy-3-pentyl-azulene sulfonate], the inhibition in vivo at 100 mg/kg (Shay's rat; 100 mg/kg) is reported as 42%.

In the case of `CCCCCc1cc(S(=O)(=O)O)c2cc(C(C)C)ccc(OC)c1-2` [compound 34, Sodium 7-isopropyl-4-methoxy-3-pentyl-azulene sulfonate], the inhibition in vivo at 100 mg/kg (Shay's rat; 100 mg/kg) is reported as -14.6%.

Work on `Cc1cc(S(=O)(=O)O)c2cccccc1-2` [compound 1, Sodium 3-methyl-azulene sulfonate] yielded an inhibition in vivo at 500 mg/kg (Shay's rat) of 52.4%.

For `CCCCCc1cc(S(=O)(=O)O)c2cc(C(C)C)cccc1-2` [compound 19, Sodium 7-isopropyl-3-n-pentyl-azulene sulfonate], the inhibition in vivo at 100 mg/kg (Shay's rat; 100 mg/kg) was -56.3%.

In the case of `Cc1cc(S(=O)(=O)O)c2cc(C(C)C)cccc1-2` [compound 13, Sodium 3-methyl-7-isopropyl-azulene sulfonate], the “% inhibition (ulcer index)” value (Shay's rat; 100 mg/kg) is reported as 69.7%.

With `CCc1cc(S(=O)(=O)O)c2cc(C(C)C)ccc(OC)c1-2` [compound 31, Sodium 7-isopropyl-4-methoxy-3-ethyl-azulene sulfonate] the inhibition in vivo at 100 mg/kg (Shay's rat; 100 mg/kg) was 67.6%.

Work on `CCCCc1cc(S(=O)(=O)O)c2cc(C(C)C)ccc(OC)c1-2` [compound 33, Sodium 7-isopropyl-4-methoxy-3-butyl-azulene sulfonate] yielded an inhibition in vivo at 100 mg/kg (Shay's rat; 100 mg/kg) of 64.8%.

In the case of `Cc1cc(S(=O)(=O)O)c2c(C)ccc(C(C)C)cc1-2` [GAS, sodium guaiazulene-3-sulfonate, reference compound], the IC50 (pepsin) is reported as 1290 µM, the inhibition at 125 µg/mL (pepsin) is reported as 14.6% and the inhibition at 250 µg/mL (pepsin) is reported as 50.4%. For the same compound, the inhibition at 500 µg/mL (pepsin) was 58.6%, the inhibition at 1000 µg/mL (pepsin) was 75.1% and the remaining at 96 h [1] was 100%. For the same compound, the remaining at 192 h [1] was 51.3%, the remaining at 240 h [1] was 9.3% and the remaining at 288 h [1] was 1.5%.

With `CC(C)c1cccc2c(S(=O)(=O)O)ccc-2c1` [compound 16, Sodium 5-isopropyl-azulene sulfonate] the inhibition in vivo at 100 mg/kg (Shay's rat; 100 mg/kg) was 62%.

Work on `CCc1cc(S(=O)(=O)O)c2ccc(C(C)C)ccc1-2` [compound 4, Sodium 3-ethyl-6-isopropyl-azulene sulfonate] yielded an inhibition in vivo at 500 mg/kg (Shay's rat) of 100%, an IC50 (pepsin) of 1830 µM and an inhibition at 125 µg/mL (pepsin) of 17.3%. The inhibition at 250 µg/mL (pepsin) was 28.9%, the inhibition at 500 µg/mL (pepsin) was 65.7% and the inhibition at 1000 µg/mL (pepsin) was 55.8%.

`Cc1cc(S(=O)(=O)O)c2cccccc1-2` [compound 35, 3-methyl-azulene sulfonic acid aluminum salt] showed an inhibition in vivo at 100 mg/kg (Shay's rat; 100 mg/kg) of 16.5%.

Compound `CCCCc1cc(S(=O)(=O)O)c2ccccc(OC)c1-2` [compound 27, Sodium 4-methoxy-3-butyl-azulene sulfonate] has an inhibition in vivo at 100 mg/kg (Shay's rat; 100 mg/kg) of 66.3%.

For `CCCc1cc(S(=O)(=O)O)c2ccccc(OC)c1-2` [compound 26, Sodium 4-methoxy-3-propyl-azulene sulfonate], the inhibition in vivo at 100 mg/kg (Shay's rat; 100 mg/kg) was 75.6%.

For `CCCCc1cc(S(=O)(=O)O)c2cccccc1-2` [compound 14, Sodium 3-n-butyl-azulene sulfonate], the inhibition in vivo at 100 mg/kg (Shay's rat; 100 mg/kg) was 32.7%.

In the case of `CCCCCCc1cc(S(=O)(=O)O)c2ccccc(OC)c1-2` [compound 29, Sodium 4-methoxy-3-hexyl-azulene sulfonate], the inhibition in vivo at 100 mg/kg (Shay's rat; 100 mg/kg) is reported as 38%.

Work on `CCCc1cc(S(=O)(=O)O)c2cc(C(C)C)ccc(OC)c1-2` [compound 32, Sodium 7-isopropyl-4-methoxy-3-propyl-azulene sulfonate] yielded an inhibition in vivo at 100 mg/kg (Shay's rat; 100 mg/kg) of 44.1%.

With `CCCc1cc(S(=O)(=O)O)c2cc(C(C)C)cccc1-2` [compound 17, Sodium 7-isopropyl-3-n-propyl-azulene sulfonate] the inhibition in vivo at 100 mg/kg (Shay's rat; 100 mg/kg) was 31.2%.

Work on `CC(C)=CCC[C@@H](C)c1cc(S(=O)(=O)O)c2cc(C(C)C)cccc1-2` [compound 21, Sodium 7-isopropyl-3-(1'-R-1',5'-dimethyl-4'-hexene)-azulene sulfonate] yielded an inhibition in vivo at 100 mg/kg (Shay's rat; 100 mg/kg) of 14.5%.

`COc1ccc(C(C)C)cc2c(S(=O)(=O)O)cc(C)c1-2` [compound 30, Sodium 7-isopropyl-4-methoxy-3-methyl-azulene sulfonate] showed an inhibition in vivo at 100 mg/kg (Shay's rat; 100 mg/kg) of 58.7%.

Compound `COc1ccccc2c(S(=O)(=O)O)cc(C)c1-2` [compound 24, Sodium 4-methoxy-3-methyl-azulene sulfonate] has an inhibition in vivo at 100 mg/kg (Shay's rat; 100 mg/kg) of 63.4%.

`CCCCc1cc(S(=O)(=O)O)c2cc(C(C)C)cccc1-2` [compound 18, Sodium 7-isopropyl-3-n-butyl-azulene sulfonate] showed an inhibition in vivo at 100 mg/kg (Shay's rat; 100 mg/kg) of 17.2%.

Work on `CC(C)=CCCC(C)c1cc(S(=O)(=O)O)c2cccccc1-2` (centres unmarked) [compound 5, Sodium 3-(1'-R, S-1',5'-dimethyl-4'-hexene) azulene sulfonate] yielded an inhibition in vivo at 500 mg/kg (Shay's rat) of 95.5%, an IC50 (pepsin) of 3790 µM and an inhibition at 125 µg/mL (pepsin) of 0.26%. It also gave an inhibition at 250 µg/mL (pepsin) of 3.57%, an inhibition at 500 µg/mL (pepsin) of 24.5% and an inhibition at 1000 µg/mL (pepsin) of 50.4%.

In the case of `CCc1cc(S(=O)(=O)O)c2ccccc(OC)c1-2` [compound 25, Sodium 4-methoxy-3-ethyl-azulene sulfonate], the inhibition in vivo at 100 mg/kg (Shay's rat; 100 mg/kg) is reported as 75.6%.

Compound `CCc1cc(S(=O)(=O)O)c2cc(C(C)C)cccc1-2` [compound 3, Sodium 3-ethyl-7-isopropyl-azulene sulfonate] has an inhibition in vivo at 500 mg/kg (Shay's rat) of 100%, an IC50 (pepsin) of 1070 µM and an inhibition at 125 µg/mL (pepsin) of 17.3%. The inhibition at 250 µg/mL (pepsin) was 47.6%, the inhibition at 500 µg/mL (pepsin) was 63.6% and the inhibition at 1000 µg/mL (pepsin) was 97.1%. It also gave an LD50 ([2]; ip, I.P., female, 95% confidence limits) of 180 mg/kg, an LD50 ([2]; ip, I.P., male, 95% confidence limits) of 165 mg/kg and an LD50 ([2]; iv, I.V., female, 95% confidence limits) of 153 mg/kg. It also gave an LD50 ([2]; iv, I.V., male) of 130 mg/kg, an LD50 ([2]; po, P.O., female, 95% confidence limits) of 1200 mg/kg and an LD50 ([2]; po, P.O., male, 95% confidence limits) of 1000 mg/kg. For the same compound, the remaining at 96 h [1] was 100%, the remaining at 192 h [1] was 100% and the remaining at 240 h [1] was 100%. The remaining at 288 h [1] was 100% and the “stability, in words” value ([1]; compared with sodium guaiazulene sulfonate) was “greatly improved”.

`CC(C)=CCC[C@H](C)c1cc(S(=O)(=O)O)c2cccccc1-2` [compound 8, Sodium 3-(1'-S-1',5'-dimethyl-4'-hexene)-azulene sulfonate] gave an inhibition in vivo at 500 mg/kg (Shay's rat) of 69.9%.
